Laboratory results: US10785978B2, “Control and repellency of biting flies, house flies, ticks, ants, fleas, biting midges, cockroaches, spiders and stink bugs” (priority 2012, dated 2020)

Legend:
Format in all cases: in vivo
[1] = test system: Brown Dog Ticks, Rhipicephalus sanguineus
From the text: The following protocol was employed to test compounds of this invention for toxicity (mortality) against ticks. There were 5 replicates of 5 dog ticks for each treatment. […] Filter paper strips were laid on a sheet of aluminum foil and enough of each of the test sample was applied to thoroughly saturate the paper. The paper was then rolled and placed inside a glass shell vial as to line the sides of the vial. A small paper disc, also saturated with the test sample, was then placed at the bottom of the vial. Brown Dog Ticks, Rhipicephalus sanguineus, were then introduced into the vials which were covered with aluminum foil, the inside of which was painted with some of the test sample. The ticks remained in the vials, constantly exposed to the test samples, for the duration of the test. A small hole was poked through the foil for ventilation. Each control replicate was subjected to the same procedures outlined above, except that they were not treated. The controls were placed in the same area as the test replicates for the duration of the test. Mortality observations were made at 24 hours. Ticks were classified as alive (able to move normally), moribund (those classified as moribund will show some movement, but will not be able to crawl in a coordinated manner, or will be unable to right themselves if placed on their backs), or dead (no movement after physical stimuli). All dead ticks were confirmed by probing or agitation to make sure that they are unable to move; any that show movement visible to the naked eye were recorded as moribund. At 24 hours the tick mortality was 0% for the control, 100% for γ-dodecalactone, 100% for methyl apritone and 76% for methyl dihydrojasmonate.

[2] = test system: Brown Dog Ticks; experiment: Second repellent assay against Brown Dog Ticks; conditions: 7% in isopropyl alcohol
Method: Also, a second repellent assay was used to evaluate six test samples against Brown Dog Ticks. Five replicates of five ticks were given the opportunity to quest onto a vertical strip of untreated filter paper and then allowed to move upward toward a second vertical strip of filter paper treated with one of the six candidate repellents or DEET®. In the control situation, the second strip was treated with isopropanol. They were then observed for directional or behavioral changes caused in response to contact with the repellent. Ticks were recorded as either repelled or not repelled. Compounds were diluted in isopropyl alcohol. The percentages of ticks repelled are shown below in Table 6.

[3] = test system: stable flies; experiment: Stable fly probing on treated warmed blood-filled membranes; conditions: for Probes at 7% test compound: 7% in isopropyl alcohol on membrane; for Probes at 7% test compound / Probes at 15% test compound: twenty minutes, percent of control probes taken as 100%; for Probes at 15% test compound: 15% in isopropyl alcohol on membrane
Method: Five replicates of 100 mixed-sex stable flies each were placed in screened cages. The cages were placed in such a way that the stable flies had access to five warmed, blood-filled membrane walls. The membranes were treated with methyl dihydrojasmonate, gamma-dodecalactone, methyl apritone, or DEET® all at 7% and at 15% in isopropyl alcohol, or isopropyl alcohol as a control. There were five replicates tested with a positional rotation of the repellent at each replicate. Fresh batches of stable flies were used for each replicate. Thus each test sample was tested on each of the five wells, which allowed any positional bias to be eliminated. The number of stable flies probing each well was recorded at two minute intervals for twenty minutes. The total number of probes on each well were tallied at the end of the twenty minute observation period and the average percentage repellency was calculated for each compound. An analysis of variance was conducted to compare the average number of probes on each treatment membrane. The number of probes for the control was taken as the 100% baseline and the percentage for the test compounds is the percent for the number of probes for the test compound compared to the number of control probes.

[4] = test system: sand flies P. papatasi; experiment: Sand fly bite test on treated human skin with K&D module; conditions: for percent biting, Treatment level 5%: 5% compound in isopropyl alcohol on human skin; for percent biting, Treatment level 5% / percent biting, Treatment level-10%: five minute exposure, percent of control biting taken as 100%; for percent biting, Treatment level-10%: 10% compound in isopropyl alcohol on human skin; for sand flies repelled: at 5%
Method: Control against sand flies was determined by the following protocol as generally described in J. Med. Entomol. 43 (6), 1248-1252 (2006). Volunteers wearing short pants were seated. Using a skin-marking template and a washable-ink marker, skin areas represented by 3- by 4-cm floor opening of six cells of a K&D module were outlined on the outer, top and inner thigh position of each leg of the volunteers. The six treated cell rectangles each represented a random block, and each volunteer had three blocks on each of two thighs. All treatments against the sand flies P. papatasi, were pipetted onto a 4- by 5-cm rectangular area (so the area of skin covered by a treatment exceeded the template marks by 0.5 cm in every direction) of the subjects' skin with 55 ul of isopropyl alcohol/treatment containing 10% or 5% compound/ul isopropyl alcohol. Treating a slightly larger area ensured that the areas beneath each K&D module contained only treated skin. Skin treated with isopropyl alcohol alone served as control. In all tests adjacent cells of the K&D module were supplied with ten sand flies. The sand fly charged K&D module was positioned over the treated skin areas and the trap doors of the K&D module above the areas were opened. After a five minute skin exposure the trap doors were closed. The number of sand fly bites was recorded for each cell. The percent biting is the percent compared to the biting for the control which was taken as 100%.

[5] = test system: German cockroaches; experiment: German cockroach repellency, choice of food stations in arena; conditions: 50% in acetone; at 4 hours
Method: The efficacy of compounds of this invention to control or repel German cockroaches was illustrated using the following protocol. One food pellet each was placed on a paper square (station) treated with one of the repellent materials. Materials were diluted to 50% in acetone and a straight acetone station was also used. Both stations were placed on the same side of the arena. Cockroaches were starved for 2 days and then released into the arena. They were given a choice to feed on either food pellet. A control arena with an acetone treated station and an untreated station was also used. The distribution of cockroaches within the arena was recorded at 30 minute intervals over 4 hours. Repellency at 4 hours was calculated by the number of cockroaches on the untreated station vs. the total number of cockroaches on the stations.

[6] = test system: house flies; experiment: House fly repellency on treated filter paper food trays in cages; conditions: over 6 hours
Method: The bottom of each cage was lined with brown craft paper and divided into 4 equal quadrants. Each quadrant housed a makeshift filter paper food tray. Two of the four filter papers were treated with repellent and two treated with isopropanol. Control cages contained filter papers that were treated with 4 filter papers of isopropanol only. The number of flies resting on filter paper per quadrant was recorded every 30 minutes for a total of 6 hours. Cages were rotated to eliminate positional bias. […] Each of the test samples were diluted in isopropyl alcohol.

[7] = test system: Black Widow spiders; experiment: Black Widow spider choice test in half-treated tube shelters; conditions: 5% in isopropanol; location after 24 hours
Method: Control against Black Widow spiders was determined using the following protocol. One test container containing two card stock tube shelters, one half treated with a test sample and the other half treated with isopropanol was prepared. A spider was introduced in the center of the tube. The spider was then given a choice to move to one end of the shelters. The following day, its location is recorded and compared to the results from a shelter containing untreated half-shelters.
On the day of the test one of the two shelters was sprayed with the test sample solution using a 2 oz pump spray bottle. Only the surfaces that the spider will most likely contact were treated. Therefore, only the inside of one of the shelter tubes, including the end disc (spiders will not be able to access the outside part of the shelter) were sprayed. The total amount of product was weighed and recorded. The treated surface was allowed to dry for a minimum of ½ hour, or until solvent could not be detected by smell. At this time the shelter tubes were assembled.
Card stock paper tube shelters were constructed from 2 half-letter sized sheets (5½″×8½″) of paper, rolled and taped together to form a short tube. One end of each was covered with a circle of card stock paper, while the other end was later taped to the open end of the other half sheet, forming one long tube. […] The solvent-treated half was labeled with a “C” on the inner and outer walls with a pencil or a pen with solvent resistant ink. Prior to forming the final tube shelter, a semi-circular hole was cut into one of the margins of each sheet such that, once the two tubes are taped together, the holes correspond to the top and at the junction of the tubes for introduction of the spiders.
Twenty-five arenas were prepared in this manner for each test sample. There were five replicates of five spiders. Twenty-five additional control arenas were also prepared. They were prepared the same way, except that areas to be sprayed were sprayed with isopropanol only.
Replicates of five spiders were selected for each test formulation and for the control. The specimens were visually examined for overall physical condition. […] The spiders were transferred directly into the holding vials using flexible forceps or with a little coaxing with an artist brush. Because of their cannibalistic tendencies, each vial contained only one spider. There they were held until the time for testing.
At the test start the spiders were placed directly in the middle, through the opening at the top of the shelter tube, and the opening covered, with only one spider per arena. […] They were left alone for 24 hours, after which time their location within the arena was recorded. Spiders present inside the shelter treated with the test repellent were considered tolerant.

[8] = test system: Brown Dog Ticks, Rhipicephalus sanguineus; experiment: Brown Dog tick repellency on vertical filter paper strips
Method: Control against Brown Dog ticks was determined in the following protocol. Strips of filter paper, 1″ by 3″, were placed on a sheet of aluminum foil treated with 1 ml each of the test samples and allowed to dry. The end of each treated strip was stapled to an untreated filter paper strip of the same dimensions. The stapled strips were suspended in a vertical position above a tray, with the treated half attached to a horizontal glass rod by a metal clip. The untreated half was lowered when the strip is vertically positioned. Brown Dog Ticks, Rhipicephalus sanguineus, mixed sexes, were purchased from a supplier. Five replicates of five ticks for each treatment regimen plus five additional replicates for the control were employed. Ticks shipped to the test site were given at least one day to acclimate to “shipping stress” before they are used for testing. Those tick specimens which appeared sluggish or moribund were not used. Suitable ticks were removed from their containers and allowed to quest on the free end of the test strip. Once present on the strip they were watched as they crawled up the strip until they contacted the treated paper. If the tick, once in contact with the treated zone, either turned around, stopped without proceeding further, or dropped off, the tick is classified as repelled. If it continued to crawl onto the treated strip, even after it stopped briefly, that tick was classified as not repelled. A maximum observation time of 1 minute per replicate was allowed for ticks to respond after reaching the treated area, but during the test, if more time was needed, the maximum observation time may have been adjusted at the discretion of the study coordinator. At the end of the observation time, the number of ticks repelled was recorded. Tick behavior was recorded when applicable, such as whether increased number of affected or repelled ticks occurred in successive replicates over time. After the completion of each treatment parameter, the testing chamber was ventilated for five minutes by turning on the exhaust fan and opening the door leading into the chamber. Ticks were used only once. Average number of ticks displaying each behavior category were calculated and compared to the control replicates.

[9] = test system: brown marmorated stink bugs (BMSB); experiment: Brown marmorated stink bug repellency, treated vs. untreated filter paper arena
Method: The two semi-circle filter papers were aligned together to completely cover the bottom of the test arena. Control arenas were also set up in a similar fashion except both were treated with acetone. Five replicates of 5 BMSB were then introduced into both the treated and control arenas. By releasing them in the center of the arena, the BMSB were presented with a choice of treated vs. untreated substrate (or untreated vs. untreated in the control arenas). The repellency of the BMSB was recorded at 24 hours post-treatment.

[10] = test system: Pharaoh ants; experiment: Pharaoh ant behaviour at treated-untreated interface on poster board; conditions: 50% in acetone; 5 minutes after release
Method: Pharaoh ants were tested using the following protocol. The side of a 17″×23″ rectangular sheet of poster board was sprayed with the test sample or acetone, except for a region within a 6″ circle. The treated poster board was allowed to dry. Five worker ants were placed in the center of the 6″ untreated circle and allowed to wander outside the circle onto the treated surface. The behavior of the ants at the treated-untreated interface was recorded for 5 minutes after release. Test compounds were diluted in acetone.

Q: Which results are given for CCCCCC1CC(C)=CC(O)C1 (stereo not shown) [3-Methyl-5-Pentyl-2-cyclohexenol, 3-methyl-5-pentyl-2-cyclohexenol]?
A: morbidity at 24 hr ([1]; 10%, constant exposure 24 hours): 100%; 24 hr mortality (%) ([1]; in vivo): 12%

Q: Which “Mean % repelled” value [2] does the source give for CCN(CC)C(=O)c1cccc(C)c1 [DEET ®, N,N-Diethyl-m-toluamide, reference compound] here?
A: 96%

Q: What about the “Probes at 7% test compound” value [3] of the same compound?
A: 45.9%

Q: What about the “Probes at 15% test compound” value [3] of the same compound?
A: 16.2%

Q: Which results are given for CCCCCC1C(O)CCC1CC(=O)OC (stereo not shown) [Methyl dihydrojasmolate]?
A: percent biting, Treatment level 5% [4]: 0%; percent biting, Treatment level-10% [4]: 0%; sand flies repelled [4]: 100%

Q: CCCCCC1C(=O)CCC1CC(=O)OCC=C(C)C (stereo not shown) [Prenyl dihydrojasmonate] was tested. Which “% Repellency 4 hr” value [5] did it give?
A: 87.5%

Q: How did the “Overall % Repellency” value ([6]; 5% in isopropyl alcohol) turn out when CCCCCCCCCC1CCCC(=O)O1 (stereo not shown) [delta Tetradecalactone] was run?
A: 76%

Q: With CCCCCCCCCCCC1CCC(=O)O1 (stereo not shown) [gamma Pentadecalactone] as the compound, how does the “% Repellency” value [7] read?
A: 75.0%

Q: And the “Overall % Repellency” value ([6]; 7.5% in isopropyl alcohol)?
A: 87%

Q: Which Mean % repelled ([8]; 7.5% in isopropyl alcohol) does the source give for CCCCCCCCCC1CCC(=O)O1 (stereo not shown) [gamma Tridecalactone, gamma-tridecalactone] here?
A: 100%

Q: And the “% Repellency at 24 hours” value ([9]; 5% in isopropyl alcohol)?
A: 70%

Q: What about the “% Repellency” value [7] of the same compound?
A: 75.0%

Q: And the “Overall % Repellency” value ([6]; 5% in isopropyl alcohol)?
A: 80%

Q: What about the “Overall % Repellency” value ([6]; 7.5% in isopropyl alcohol) of the same compound?
A: 94%

Q: CCCCCCCCC1CCC(=O)O1 (stereo not shown) [gamma-Dodecalactone, gamma-dodecalactone] was tested. Which “% crossed without stopping” value [10] did it give?
A: 82%

Q: What about the “% slowed, but crossed” value [10] of the same compound?
A: 8%

Q: And the “% stopped at interface” value [10]?
A: 10%

Q: And the Mean % repelled ([8]; Neat)?
A: 100%

Q: And the ticks repelled ([8]; concentration not given)?
A: 100%

Q: What about the “% Repellency at 24 hours” value ([9]; 10% in isopropyl alcohol) of the same compound?
A: 100%

Q: And the “24 hr mortality (%)” value ([1]; in vivo)?
A: 100%

Q: What about the “tick mortality at 24 hours” value ([1]; in vivo) of the same compound?
A: 100%

Q: And the “Probes at 7% test compound” value [3]?
A: 6.2%

Q: And the “Probes at 15% test compound” value [3]?
A: 3.6%

Q: What about the “repellency compared with DEET” value ([3]; at the same concentrations (7% and 15%)) of the same compound?
A: repelled better than DEET®

Q: And the “% Repellency 4 hr” value [5]?
A: 96.6%

Q: And the “Overall % Repellency” value ([6]; 7.5% in isopropyl alcohol)?
A: 100%

Q: Farnesyl cyclopentanone was tested. Which “% Repellency 4 hr” value [5] did it give?
A: 100%

Q: How did the “percent biting, Treatment level 5%” value [4] turn out when Methyl apritol was run?
A: 12.5%

Q: And the “percent biting, Treatment level-10%” value [4]?
A: 0%

Q: What about the sand flies repelled [4] of the same compound?
A: 87.5%
